Assay results as given in ChEMBL document CHEMBL5465560, “Selectivity Literature for EUbOPEN Chemogenomic Library” (2024).

Assays:
[1] = biological target: Protein kinase C alpha type (Homo sapiens, UniProt P17252); assay: Selectivity interaction (Upstate Kinase Profiler service (Millipore)) EUB0000056c PRKCA; details: at 1 µM
[2] = biological target: T1, Aurora kinase C (Homo sapiens) (UniProt Q9UQB9); assay: Selectivity interaction (ProQinase) EUB0000171b AURKC
T1 sequence (whole entry): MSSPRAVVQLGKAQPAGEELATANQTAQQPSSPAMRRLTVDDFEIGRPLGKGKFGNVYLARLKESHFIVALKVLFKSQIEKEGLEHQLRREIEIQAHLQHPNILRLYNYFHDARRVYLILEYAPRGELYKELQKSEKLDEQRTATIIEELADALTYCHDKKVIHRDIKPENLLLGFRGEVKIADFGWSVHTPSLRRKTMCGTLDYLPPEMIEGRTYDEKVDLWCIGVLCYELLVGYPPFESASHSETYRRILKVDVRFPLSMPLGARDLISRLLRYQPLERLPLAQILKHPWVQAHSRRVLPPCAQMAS

[3] = biological target: LIM domain kinase 1 (Homo sapiens) (UniProt P53667); assay: Selectivity interaction (KinomeScan (DiscoverX)) EUB0001079a LIMK1; details: at 1 µM
[4] = biological target: T2, Serine/threonine-protein kinase NLK (Homo sapiens) (UniProt Q9UBE8); assay: Selectivity interaction (KinomeScan (DiscoverX)) EUB0001079a NLK; details: at 1 µM
T2 sequence (whole entry): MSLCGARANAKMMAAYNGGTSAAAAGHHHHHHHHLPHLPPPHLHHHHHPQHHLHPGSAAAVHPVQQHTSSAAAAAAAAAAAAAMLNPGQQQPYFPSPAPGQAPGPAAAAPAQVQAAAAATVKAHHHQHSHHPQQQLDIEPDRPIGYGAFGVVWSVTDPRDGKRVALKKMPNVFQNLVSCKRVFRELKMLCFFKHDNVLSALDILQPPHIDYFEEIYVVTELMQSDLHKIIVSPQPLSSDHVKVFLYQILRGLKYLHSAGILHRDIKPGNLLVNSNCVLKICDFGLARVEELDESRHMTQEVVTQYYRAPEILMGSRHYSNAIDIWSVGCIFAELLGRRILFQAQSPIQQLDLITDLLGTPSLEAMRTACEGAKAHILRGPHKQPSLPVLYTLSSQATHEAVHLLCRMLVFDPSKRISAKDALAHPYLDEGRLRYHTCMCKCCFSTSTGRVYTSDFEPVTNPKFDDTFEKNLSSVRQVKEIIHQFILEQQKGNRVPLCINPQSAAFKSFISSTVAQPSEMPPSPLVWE

Motilin receptor = Motilin receptor (Homo sapiens, UniProt O43193); assay: Selectivity interaction (Motilin receptor binding assay, human recombinant ) EUB0000877a MLNR
[5] = biological target: DNA (cytosine-5)-methyltransferase 3A (Homo sapiens) (UniProt Q9Y6K1); assay: Selectivity interaction (PWWP, WD40, and Tudor domain panel (DSLS measurements, literature)) EUB0000270b DNMT3A
[6] = biological target: Calcium/calmodulin-dependent protein kinase type 1D (Homo sapiens) (UniProt Q8IU85); assay: Selectivity interaction (ActivX KiNativ screen (kinase selectivity in THP-1 cell lysates)) EUB0000639a CAMK1D; format: subcellular; details: lysate, at 5 µM
[7] = biological target: 5'-AMP-activated protein kinase catalytic subunit alpha-2 (Homo sapiens) (UniProt P54646); assay: Selectivity interaction (ActivX KiNativ screen (kinase selectivity in THP-1 cell lysates)) EUB0000639a PRKAA2; format: subcellular; details: lysate, at 1 µM
[8] = biological target: Ribosomal protein S6 kinase alpha-1 (Homo sapiens, UniProt Q15418); assay: Selectivity interaction (ActivX KiNativ screen (kinase selectivity in THP-1 cell lysates)) EUB0000639a RPS6KA1; format: subcellular; details: lysate, at 5 µM
[9] = biological target: T3, Tyrosine-protein kinase ZAP-70 (Homo sapiens) (UniProt P43403); assay: Selectivity interaction (KinomeScan (DiscoverX)) EUB0000695a ZAP70; details: at 100 nM
T3 sequence (whole entry): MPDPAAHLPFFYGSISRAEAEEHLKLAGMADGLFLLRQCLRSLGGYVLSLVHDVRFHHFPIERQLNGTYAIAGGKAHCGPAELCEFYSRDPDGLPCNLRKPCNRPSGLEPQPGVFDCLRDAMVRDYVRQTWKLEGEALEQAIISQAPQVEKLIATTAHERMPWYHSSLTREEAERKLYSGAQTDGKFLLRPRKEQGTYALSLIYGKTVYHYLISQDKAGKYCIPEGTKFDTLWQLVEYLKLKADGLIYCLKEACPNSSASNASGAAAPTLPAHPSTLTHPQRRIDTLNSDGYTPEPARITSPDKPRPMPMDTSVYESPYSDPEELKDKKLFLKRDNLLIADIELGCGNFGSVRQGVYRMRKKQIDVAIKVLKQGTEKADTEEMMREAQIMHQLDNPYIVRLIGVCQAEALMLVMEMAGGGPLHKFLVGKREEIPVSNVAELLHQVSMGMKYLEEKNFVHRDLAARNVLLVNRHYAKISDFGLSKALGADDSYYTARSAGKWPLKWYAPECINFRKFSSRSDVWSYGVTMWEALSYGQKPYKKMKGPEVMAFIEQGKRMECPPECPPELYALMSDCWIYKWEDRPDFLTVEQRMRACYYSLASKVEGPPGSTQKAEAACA

[10] = biological target: Casein kinase II subunit alpha' (Homo sapiens) (UniProt P19784); assay: Selectivity interaction (KinomeScan (DiscoverX)) EUB0000618a CSNK2A2; details: at 10 µM
Sequence of Casein kinase II subunit alpha' (Homo sapiens) (P19784 whole entry, looked up): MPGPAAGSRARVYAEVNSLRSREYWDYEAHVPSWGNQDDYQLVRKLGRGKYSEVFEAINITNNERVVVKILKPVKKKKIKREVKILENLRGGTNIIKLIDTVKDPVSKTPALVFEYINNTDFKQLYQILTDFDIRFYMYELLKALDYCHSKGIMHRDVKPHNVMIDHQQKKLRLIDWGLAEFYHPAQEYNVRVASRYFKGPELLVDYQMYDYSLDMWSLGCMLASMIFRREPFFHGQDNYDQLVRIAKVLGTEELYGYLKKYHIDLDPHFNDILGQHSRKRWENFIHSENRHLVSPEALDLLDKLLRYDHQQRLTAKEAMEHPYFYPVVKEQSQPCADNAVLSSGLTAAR

Sequence of Ribosomal protein S6 kinase alpha-1 (Q15418 whole entry): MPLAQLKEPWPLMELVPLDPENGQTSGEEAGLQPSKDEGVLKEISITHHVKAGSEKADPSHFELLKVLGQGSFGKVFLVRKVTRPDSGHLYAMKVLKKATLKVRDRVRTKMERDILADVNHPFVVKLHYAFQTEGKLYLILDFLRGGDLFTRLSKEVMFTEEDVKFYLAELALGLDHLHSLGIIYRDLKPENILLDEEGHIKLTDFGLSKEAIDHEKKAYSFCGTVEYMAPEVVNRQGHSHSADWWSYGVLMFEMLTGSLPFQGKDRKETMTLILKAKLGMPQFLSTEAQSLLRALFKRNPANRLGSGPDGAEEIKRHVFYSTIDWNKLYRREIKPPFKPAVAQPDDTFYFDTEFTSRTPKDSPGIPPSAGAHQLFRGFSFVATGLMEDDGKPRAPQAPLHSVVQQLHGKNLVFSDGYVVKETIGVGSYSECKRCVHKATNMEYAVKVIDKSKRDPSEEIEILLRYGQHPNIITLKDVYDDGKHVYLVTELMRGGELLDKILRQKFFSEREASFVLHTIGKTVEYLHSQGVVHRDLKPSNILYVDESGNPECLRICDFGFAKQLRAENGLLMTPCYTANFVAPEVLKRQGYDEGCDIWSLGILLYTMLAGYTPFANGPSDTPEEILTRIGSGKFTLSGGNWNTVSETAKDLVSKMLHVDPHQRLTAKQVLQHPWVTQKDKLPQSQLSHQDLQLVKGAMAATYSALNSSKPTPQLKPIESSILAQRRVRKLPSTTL
Sequence of Motilin receptor (O43193 whole entry, the tested form may be a part): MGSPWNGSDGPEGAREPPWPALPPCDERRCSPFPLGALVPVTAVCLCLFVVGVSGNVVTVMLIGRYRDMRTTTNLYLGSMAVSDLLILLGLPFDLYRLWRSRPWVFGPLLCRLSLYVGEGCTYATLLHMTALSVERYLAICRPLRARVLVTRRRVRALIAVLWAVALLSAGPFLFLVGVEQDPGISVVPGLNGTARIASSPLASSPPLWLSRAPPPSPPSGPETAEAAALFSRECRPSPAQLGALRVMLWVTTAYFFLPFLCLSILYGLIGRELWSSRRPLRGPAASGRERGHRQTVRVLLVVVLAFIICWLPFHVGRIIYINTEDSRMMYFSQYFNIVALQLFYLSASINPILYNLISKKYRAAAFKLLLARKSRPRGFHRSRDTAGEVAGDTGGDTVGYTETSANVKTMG
Sequence of Calcium/calmodulin-dependent protein kinase type 1D (Homo sapiens) (Q8IU85 whole entry, looked up): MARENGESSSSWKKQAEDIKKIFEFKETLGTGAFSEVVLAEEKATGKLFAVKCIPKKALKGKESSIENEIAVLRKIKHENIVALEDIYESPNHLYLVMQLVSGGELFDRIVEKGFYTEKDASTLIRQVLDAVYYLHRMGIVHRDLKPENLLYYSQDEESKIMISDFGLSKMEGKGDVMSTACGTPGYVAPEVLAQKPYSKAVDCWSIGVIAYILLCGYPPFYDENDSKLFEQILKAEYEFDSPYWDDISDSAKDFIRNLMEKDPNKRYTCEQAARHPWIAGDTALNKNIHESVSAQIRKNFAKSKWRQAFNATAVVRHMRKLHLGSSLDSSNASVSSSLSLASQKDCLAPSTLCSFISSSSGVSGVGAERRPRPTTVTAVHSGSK
Sequence of 5'-AMP-activated protein kinase catalytic subunit alpha-2 (Homo sapiens) (P54646 whole entry, looked up): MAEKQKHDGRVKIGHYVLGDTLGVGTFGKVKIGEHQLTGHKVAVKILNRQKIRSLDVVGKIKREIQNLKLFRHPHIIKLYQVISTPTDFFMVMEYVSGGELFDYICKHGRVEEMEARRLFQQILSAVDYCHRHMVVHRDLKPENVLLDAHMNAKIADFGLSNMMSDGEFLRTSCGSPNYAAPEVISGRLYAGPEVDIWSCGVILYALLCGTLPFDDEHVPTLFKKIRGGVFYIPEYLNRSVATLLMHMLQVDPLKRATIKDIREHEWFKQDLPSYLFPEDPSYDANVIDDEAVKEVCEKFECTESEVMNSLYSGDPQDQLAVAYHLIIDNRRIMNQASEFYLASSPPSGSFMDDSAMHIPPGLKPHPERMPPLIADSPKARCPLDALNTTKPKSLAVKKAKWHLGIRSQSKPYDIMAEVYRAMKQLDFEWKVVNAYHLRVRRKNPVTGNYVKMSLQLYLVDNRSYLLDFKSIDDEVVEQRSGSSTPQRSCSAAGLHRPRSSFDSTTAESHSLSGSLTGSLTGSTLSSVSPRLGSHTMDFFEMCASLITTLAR
Sequence of DNA (cytosine-5)-methyltransferase 3A (Homo sapiens) (Q9Y6K1 whole entry, looked up, the tested form may be a part): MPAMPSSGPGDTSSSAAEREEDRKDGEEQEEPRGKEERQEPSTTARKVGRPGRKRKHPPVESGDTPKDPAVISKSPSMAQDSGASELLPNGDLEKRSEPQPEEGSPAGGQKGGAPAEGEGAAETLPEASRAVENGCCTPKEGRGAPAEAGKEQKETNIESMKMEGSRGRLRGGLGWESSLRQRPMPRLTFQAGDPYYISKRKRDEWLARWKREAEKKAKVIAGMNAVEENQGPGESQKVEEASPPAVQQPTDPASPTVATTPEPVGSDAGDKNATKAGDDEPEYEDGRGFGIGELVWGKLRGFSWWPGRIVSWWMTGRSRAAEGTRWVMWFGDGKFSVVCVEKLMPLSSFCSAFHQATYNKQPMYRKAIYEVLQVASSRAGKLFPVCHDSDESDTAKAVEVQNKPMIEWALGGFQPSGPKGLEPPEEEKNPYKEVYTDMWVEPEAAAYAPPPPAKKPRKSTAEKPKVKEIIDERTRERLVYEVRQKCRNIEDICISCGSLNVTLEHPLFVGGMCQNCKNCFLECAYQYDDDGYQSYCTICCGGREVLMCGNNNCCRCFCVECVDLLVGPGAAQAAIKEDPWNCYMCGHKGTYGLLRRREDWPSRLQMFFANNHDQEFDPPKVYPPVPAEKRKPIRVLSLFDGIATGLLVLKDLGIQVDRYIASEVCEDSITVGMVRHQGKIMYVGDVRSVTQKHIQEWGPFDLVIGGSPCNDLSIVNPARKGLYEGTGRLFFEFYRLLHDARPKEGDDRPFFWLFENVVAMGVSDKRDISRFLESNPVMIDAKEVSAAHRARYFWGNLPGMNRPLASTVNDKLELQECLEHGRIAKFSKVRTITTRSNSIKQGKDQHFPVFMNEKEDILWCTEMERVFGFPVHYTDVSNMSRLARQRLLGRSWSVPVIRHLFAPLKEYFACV
Sequence of LIM domain kinase 1 (Homo sapiens) (P53667 whole entry, looked up, the tested form may be a part): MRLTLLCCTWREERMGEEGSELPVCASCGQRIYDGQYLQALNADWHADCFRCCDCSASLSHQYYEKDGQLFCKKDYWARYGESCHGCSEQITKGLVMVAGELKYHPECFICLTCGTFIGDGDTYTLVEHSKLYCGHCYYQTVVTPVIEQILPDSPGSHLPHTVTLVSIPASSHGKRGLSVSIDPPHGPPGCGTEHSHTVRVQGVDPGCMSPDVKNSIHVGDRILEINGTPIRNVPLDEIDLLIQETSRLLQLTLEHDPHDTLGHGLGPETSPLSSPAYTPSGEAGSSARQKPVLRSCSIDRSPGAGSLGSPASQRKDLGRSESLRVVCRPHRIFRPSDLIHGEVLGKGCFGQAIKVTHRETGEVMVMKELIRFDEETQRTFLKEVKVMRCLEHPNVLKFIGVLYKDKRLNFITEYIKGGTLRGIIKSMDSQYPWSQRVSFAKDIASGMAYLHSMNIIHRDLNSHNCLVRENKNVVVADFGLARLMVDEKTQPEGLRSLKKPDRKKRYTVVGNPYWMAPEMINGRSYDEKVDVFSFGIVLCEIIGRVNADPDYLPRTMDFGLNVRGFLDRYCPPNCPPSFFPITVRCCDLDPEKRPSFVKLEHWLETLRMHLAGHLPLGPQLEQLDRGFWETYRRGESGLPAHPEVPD

Cc1ccc(-c2ccc3c(ccc4sc5c(c43)NC[C@@H](C)NC5=O)n2)cn1
% of inhibition [1]: 11%

C=CC(=O)Nc1cccc(C(=O)Nc2ccc(Nc3cc(-c4[nH]c(SC)nc4C)ccn3)cc2)c1
% of control ([2]; at 1 µM): 86%
% of control ([2]; at 5 µM): 57%

Nc1cnc(N2CCc3cc(S(=O)(=O)Nc4c(F)cc(Cl)cc4F)cc(N4CCCC4=O)c32)nc1 [TP-020n]
% of control [3]: 100%
% of control [4]: 100%

CCC(=O)N1CC[C@H](Nc2ncnc3c2CN(c2cnc(OC)c(C(F)(F)F)c2)CC3)C1 [LENIOLISIB]
IC50 (Motilin receptor): > 30 µM

Cc1cc(CN)cc(C)c1-c1ncn(C)c1-c1cncn1C
dTagg [5]: -0.1 K

CC[C@@H]1[C@H](F)C(=O)N[C@@H]1COc1nccc2cc(C(N)=O)c(OC)cc12 [ZIMLOVISERTIB]
% of inhibition [6]: 21.3%
% of inhibition [7]: -4.6%
% of inhibition [8]: 0.2%

Cc1cc(F)c(C(=O)Nc2cccc(-c3nncn3C(C)C)n2)cc1-n1cnc(C2CC2)c1
% of control [9]: 100%

O[C@H]1CC[C@H](Nc2ncc3nc(Nc4c(F)cc(F)cc4F)n([C@H]4CCOC4)c3n2)CC1
% of control [10]: 96%
